Results taken from patent publication US20130150325A1, “3-(Fluorovinyl)pyrazoles and their use” (BAYER INTELLECTUAL PROPERTY GMBH, priority 2011, published 2013).
pIC50: −log10 of the molar value.

Tested on: HCT 116 cells transfected with a luciferase reporter under the control of an HIF-responsive sequence
Test: HIF-luciferase assay
Assay type: cell-based
Settings: Homo sapiens; HCT 116 HIF-luciferase reporter cells, hypoxia chamber (1% O2), 24 h; in some cases means of up to four individual determinations
Method: HCT 116 cells were transfected in a stable manner with a plasmid which contained a luciferase reporter under the control of an HIF-responsive sequence. These cells were sown in microtitre plates [20 000 cells/cavity in RPMI 1640 medium with 10% foetal calf serum (FCS) and 100 μg/ml of hygromycin]. Incubation was carried out overnight under standard conditions (5% CO2, 21% O2, 37° C., moistened). The following morning the cells were incubated with various concentrations of the test substances (0-10 μmol/l) in a hypoxia chamber (1% O2). After 24 h, Bright Glo reagent (Promega, Wisconsin, USA) was added in accordance with the manufacturer's instructions, and after 5 min the luminescence was measured. Cells which were incubated under normoxia served as background controls.
The IC50 values from this assay for representative working examples are listed in the following table (in same cases as means of up to four individual determinations): […]

CNc1ccc(Cn2nc(/C(F)=C/c3ccc(SC(C)(C)C(=O)N4CCCC4)cc3)cc2C)cn1 [Example 93, 2-({4-[(Z)-2-Fluoro-2-(5-methyl-1-{[6-(methylamino)pyridin-3-yl]methyl}-1H-pyrazol-3-yl)-vinyl]phenyl}sulphanyl)-2-methyl-1-(pyrrolidin-1-yl)propan-1-one]
pIC50: 8.30

CNc1ccc(Cn2nc(/C=C(\F)c3ccc(OC(F)(F)F)cc3)cc2C)cn1 [Example 117, 5-[(3-{(Z)-2-Fluoro-2-[4-(trifluoromethoxy)phenyl]vinyl}-5-methyl-1H-pyrazol-1-yl)methyl]-N-methylpyridine-2-amine]
pIC50: 7.52

Cc1cc(/C(F)=C/c2ccc(C(C)(C)C(F)(F)F)cc2)nn1Cc1cccc(C2(CO)CC2)c1 [Example 57, (1-{3-[(3-{(Z)-1-Fluoro-2-[4-(1,1,1-trifluoro-2-methylpropan-2-yl)phenyl]vinyl}-5-methyl-1H-pyrazol-1-yl)methyl]phenyl}cyclopropyl)methanol]
pIC50: 9.00

Cc1cc(/C(F)=C/c2ccc(C(C)(C)C(F)(F)F)cc2)nn1Cc1ccnc(N2CCN(C3CC3)CC2)c1 [Example 104, 1-Cyclopropyl-4-{4-[(3-{(Z)-1-fluoro-2-[4-(1,1,1-trifluoro-2-methylpropan-2-yl)phenyl]vinyl}-5-methyl-1H-pyrazol-1-yl)methyl]pyridin-2-yl}piperazine]
pIC50: 9.40

Cc1cc(/C=C(\F)c2ccc(OC(F)(F)F)cc2)nn1Cc1ccnc(N2CCN(C3CC3)CC2)c1 [Example 120, 1-Cyclopropyl-4-{4-[(3-{(Z)-2-fluoro-2-[4-(trifluoromethoxy)phenyl]vinyl}-5-methyl-1H-pyrazol-1-yl)methyl]pyridin-2-yl}piperazine]
pIC50: 7.70

Cc1cc(/C(F)=C/c2ccc(C3(C(F)(F)F)CC3)cc2)nn1Cc1cccc(N2CCC(C#N)CC2)c1 [Example 11, 1-[3-({3-[(Z)-1-Fluoro-2-{4-[1-(trifluoromethyl)cyclopropyl]phenyl}vinyl]-5-methyl-1H-pyrazol-1-yl}methyl)phenyl]piperidine-4-carbonitrile]
pIC50: 9.70

Cc1cc(/C(F)=C/c2ccc(CN(C(C)C)C(C)C)cc2)nn1Cc1ccnc(N2CCN(C3CC3)CC2)c1 [Example 109, N-{4-[(Z)-2-(1-{[2-(4-Cyclopropylpiperazin-1-yl)pyridin-4-yl]methyl}-5-methyl-1H-pyrazol-3-yl)-2-fluorovinyl]benzyl}-N-isopropylpropane-2-amine]
pIC50: 8.82

Cc1cc(/C(F)=C/c2ccc(OC(F)(F)F)cc2)nn1Cc1cccc(C(F)(F)CO)c1 [Example 61, 2,2-Difluoro-2-{3-[(3-{(Z)-1-fluoro-2-[4-(trifluoromethoxy)phenyl]vinyl}-5-methyl-1H-pyrazol-1-yl)methyl]phenyl}ethanol]
pIC50: 8.40

Cc1cc(/C(F)=C/c2ccc(C(C)(C)C)cc2)nn1Cc1ccnc(N2CCN(CC(F)(F)F)CC2)c1 [Example 110, 1-[4-({3-[(Z)-2-(4-tert-Butylphenyl)-1-fluorovinyl]-5-methyl-1H-pyrazol-1-yl}methyl)pyridin-2-yl]-4-(2,2,2-trifluoroethyl)piperazine]
pIC50: 9.00

Cc1cc(/C(F)=C/c2ccc(SC(F)(F)F)cc2)nn1Cc1cccc(C(=O)N2CCCC2)c1 [Example 27, [3-({3-[(Z)-1-Fluoro-2-{4-[(trifluoromethyl)sulphanyl]phenyl}vinyl]-5-methyl-1H-pyrazol-1-yl}methyl)phenyl](pyrrolidin-1-yl)methanone]
pIC50: 8.40

Cc1cc(/C(F)=C/c2ccc(C3(C(F)(F)F)CC3)cc2)nn1Cc1cccc(C2(O)CC2)c1 [Example 51, 1-[3-({3-[(Z)-1-Fluoro-2-{4-[1-(trifluoromethyl)cyclopropyl]phenyl}vinyl]-5-methyl-1H-pyrazol-1-yl}methyl)phenyl]cyclopropanol]
pIC50: 9.00

CNc1ccc(Cn2nc(/C(F)=C/c3ccc([Si](C)(C)C)cc3)cc2C)cn1 [Example 86, 5-[(3-{(Z)-1-Fluoro-2-[4-(trimethylsilyl)phenyl]vinyl}-5-methyl-1H-pyrazol-1-yl)methyl]-N-methylpyridine-2-amine]
pIC50: 9.52

Cc1cc(/C(F)=C/c2ccc(C(C)(C)C(F)(F)F)cc2)nn1Cc1cccc(N2CCC(O)CC2)c1 [Example 13, 1-{3-[(3-{(Z)-1-Fluoro-2-[4-(1,1,1-trifluoro-2-methylpropan-2-yl)phenyl]vinyl}-5-methyl-1H-pyrazol-1-yl)methyl]phenyl}piperidin-4-ol]
pIC50: 9.30

Cc1cc(/C(F)=C/c2ccc(OC(F)(F)F)cc2)nn1Cc1cccc(C(=O)N2CCCC2)c1 [Example 26, {3-[(3-{(Z)-1-Fluoro-2-[4-(trifluoromethoxy)phenyl]vinyl}-5-methyl-1H-pyrazol-1-yl)-methyl]phenyl}(pyrrolidin-1-yl)methanone]
pIC50: 8.82

CNc1ccc(Cn2nc(/C(F)=C/c3ccc(CN(C(C)C)C(C)C)cc3)cc2C)cn1 [Example 94, 5-({3-[(Z)-2-{4-[(Diisopropylamino)methyl]phenyl}-1-fluorovinyl]-5-methyl-1H-pyrazol-1-yl}-methyl)-N-methylpyridine-2-amine]
pIC50: 9.00

CNc1ccc(Cn2nc(/C(F)=C/c3ccc(C(C)C)cc3)cc2C)cn1 [Example 89, 5-({3-[(Z)-1-Fluoro-2-(4-isopropylphenyl)vinyl]-5-methyl-1H-pyrazol-1-yl}methyl)-N-methyl-pyridine-2-amine]
pIC50: 8.70

Cc1cc(/C(F)=C/c2ccc(C3(C(F)(F)F)CC3)cc2)nn1Cc1cccc(C(=O)N2CCN(C3CC3)CC2)c1 [Example 40, (4-Cyclopropylpiperazin-1-yl)[3-({3-[(Z)-1-fluoro-2-{4-[1-(trifluoromethyl)cyclopropyl]phenyl}-vinyl]-5-methyl-1H-pyrazol-1-yl}methyl)phenyl]methanone]
pIC50: 8.70

Cc1cc(/C(F)=C/c2ccc(OC(F)(F)F)cc2)nn1Cc1cccc(C(=O)N2CCN(C3CC3)CC2)c1 [Example 37, (4-Cyclopropylpiperazin-1-yl) {3-[(3-{(Z)-1-fluoro-2-[4-(trifluoromethoxy)phenyl]vinyl}-5-methyl-1H-pyrazol-1-yl)methyl]phenyl}methanone]
pIC50: 8.52

Cc1cc(/C(F)=C/c2ccc(C3(C(F)(F)F)CC3)cc2)nn1Cc1cccc(C(=O)N2CCC(O)CC2)c1 [Example 35, [3-({3-[(Z)-1-Fluoro-2-{4-[1-(trifluoromethyl)cyclopropyl]phenyl}vinyl]-5-methyl-1H-pyrazol-1-yl}methyl)phenyl](4-hydroxypiperidin-1-yl)methanone]
pIC50: 8.30

COC(=O)c1cccc(Cn2nc(/C(F)=C/c3ccc(OC(F)(F)F)cc3)cc2C)c1 [Example 18, Methyl 3-[(3-{(Z)-1-fluoro-2-[4-(trifluoromethoxy)phenyl]vinyl}-5-methyl-1H-pyrazol-1-yl)methyl]benzoate]
pIC50: 7.70

Cc1cc(/C(F)=C/c2ccc(C(C)(C)C)cc2)nn1Cc1cccc(C2(O)CC2)c1 [Example 52, 1-[3-({3-[(Z)-2-(4-tert-Butylphenyl)-1-fluorovinyl]-5-methyl-1H-pyrazol-1-yl}methyl)phenyl]-cyclopropanol]
pIC50: 9.00

CNc1ccc(Cn2nc(/C(F)=C/c3ccc(S(F)(F)(F)(F)F)cc3)cc2C)cn1 [Example 91, 5-[(3-{(Z)-1-Fluoro-2-[4-(pentafluoro-λ^6-sulphanyl)phenyl]vinyl}-5-methyl-1H-pyrazol-1-yl)-methyl]-N-methylpyridine-2-amine]
pIC50: 9.52

Cc1cc(/C(F)=C/c2ccc(OC(F)(F)F)cc2)nn1Cc1cccc(C(C)(C)O)c1 [Example 53, 2-{3-[(3-{(Z)-1-Fluoro-2-[4-(trifluoromethoxy)phenyl]vinyl}-5-methyl-1H-pyrazol-1-yl)methyl]-phenyl}propan-2-ol]
pIC50: 8.40

Cc1cc(/C(F)=C/c2ccc(C3(C(F)(F)F)CC3)cc2)nn1Cc1ccnc(N2CCN(C3CC3)CC2)c1 [Example 105, 1-Cyclopropyl-4-[4-({3-[(Z)-1-fluoro-2-{4-[1-(trifluoromethyl)cyclopropyl]phenyl}vinyl]-5-methyl-1H-pyrazol-1-yl}methyl)pyridin-2-yl]piperazine]
pIC50: 9.30

Cc1cc(/C(F)=C/c2ccc(OC(F)(F)F)cc2)nn1Cc1cccc(N2CCC(C#N)CC2)c1 [Example 9, 1-{3-[(3-{(Z)-1-Fluoro-2-[4-(trifluoromethoxy)phenyl]vinyl}-5-methyl-1H-pyrazol-1-yl)-methyl]phenyl}piperidine-4-carbonitrile]
pIC50: 9.40

Cc1ccc(Cn2nc(/C(F)=C/c3ccc(N4CC(C)OC(C)C4)nc3)cc2C)cc1 (centres unmarked) [Example 4, 4-(5-{(Z)-2-Fluoro-2-[5-methyl-1-(4-methylbenzyl)-1H-pyrazol-3-yl]vinyl}pyridin-2-yl)-2,6-dimethylmorpholine]
pIC50: 8.70

CC(=O)OC1(c2cccc(Cn3nc(/C(F)=C/c4ccc(C(C)(C)C(F)(F)F)cc4)cc3C)c2)CC1 [Example 44, 1-{3-[(3-{(Z)-1-Fluoro-2-[4-(1,1,1-trifluoro-2-methylpropan-2-yl)phenyl]vinyl}-5-methyl-1H-pyrazol-1-yl)methyl]phenyl}cyclopropyl acetate]
pIC50: 9.30

COC(=O)c1cccc(Cn2nc(/C(F)=C/c3ccc([Si](C)(C)C)cc3)cc2C)c1 [Example 23, Methyl 3-[(3-{(Z)-1-fluoro-2-[4-(trimethylsilyl)phenyl]vinyl}-5-methyl-1H-pyrazol-1-yl)methyl]benzoate]
pIC50: 9.00

CNc1ccc(Cn2nc(/C(F)=C/c3ccc(OC(F)(F)F)c(F)c3)cc2C)cn1 [Example 80, 5-[(3-{(Z)-1-Fluoro-2-[3-fluoro-4-(trifluoromethoxy)phenyl]vinyl}-5-methyl-1H-pyrazol-1-yl)-methyl]-N-methylpyridine-2-amine]
pIC50: 8.55
